# Measured values taken from patent US8846873B2, “Antibodies directed to GPNMB and uses thereof” (Celldex Therapeutics, Inc., priority 2004, dated 2014).
# “Also recorded” adds a separate entry of the source.
# Legend:
# [1] = target: T1, purified recombinant GPNMB (Homo sapiens, UniProt Q14956); experiment: ELISA of CR011 engineered antibodies on recombinant GPNMB; type: binding; settings: anti-FLAG-HRP detection
# T1 construct: made in house; host or cells: HEK 293
# T1 sequence (Q14956 23-492): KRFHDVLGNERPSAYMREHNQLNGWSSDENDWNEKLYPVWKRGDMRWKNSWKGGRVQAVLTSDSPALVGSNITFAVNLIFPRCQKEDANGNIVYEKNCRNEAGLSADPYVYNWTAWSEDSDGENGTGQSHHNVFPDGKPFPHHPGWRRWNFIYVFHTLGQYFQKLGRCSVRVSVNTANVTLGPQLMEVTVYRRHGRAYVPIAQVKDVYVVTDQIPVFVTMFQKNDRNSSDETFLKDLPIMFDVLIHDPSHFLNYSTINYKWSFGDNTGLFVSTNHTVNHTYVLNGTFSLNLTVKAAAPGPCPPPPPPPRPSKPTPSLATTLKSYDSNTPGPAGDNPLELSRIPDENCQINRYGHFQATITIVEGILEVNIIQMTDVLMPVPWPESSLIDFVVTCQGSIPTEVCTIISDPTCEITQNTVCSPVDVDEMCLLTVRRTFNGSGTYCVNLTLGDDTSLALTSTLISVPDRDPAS
# Procedure: Plates were then blocked and washed. Various dilutions of the CR011 engineered antibodies were added into the wells. Plates were incubated for 1 h and washed. HRP-conjugated anti-FLAG M2 mAb (Sigma, St. Louis, Mo.) was added into the wells for 1 h, washed and the reaction developed with the TMB substrate reagent as described by the manufacturer (Pharmingen, San Jose, Calif.).
# Plates were coated with human GPNMB protein tagged with His and V5. […] Binding of the recombinant mAbs (both monomer and dimer) was detected using anti-FLAG-HRP conjugated mAb M2 (Sigma).
# [2] = test system: human T cells (CD3); experiment: Flow cytometry of CR011 engineered antibodies; type: binding; settings: 5 μg/sample/100 μl
# From the text: (§1) (Jackson ImmunoResearch, West Grove, Pa.) Ten thousand events were collected and analyzed on a FACSCalibur instrument (Becton Dickinson, Mountain View, Calif.).
# (§2) To verify binding of the bi-scFv to human CD3 molecules, we used purified human T cells. […] Control anti-CD3 mAb bound to T cells, and control anti-GPNMB mAb bound to SK-Mel-5 tumor cells.
# [3] = test system: SK-Mel-5 cells; experiment: Flow cytometry of CR011 engineered antibodies; type: binding, human; settings: 5 μg/sample/100 μl
# From the text: as §1, §2
# [4] = test system: SK-Mel-5 tumor cells; experiment: T lymphocyte redirected cytotoxicity (PKH2 / propidium iodine flow cytometry); type: cell-based, human; settings: purified T cells cultured O/N with tumor cells
# Procedure: Tumor cells were labeled with PKH2 green fluorescent linker kit (Sigma) and washed. Purified T cells were cultured O/N with PKH2-labeled tumor cells in the presence or absence of purified bi-scFv. Death of GPNMB positive tumor cells was measured by propidium iodine (PI) incorporation.
substance,measurement,setting,value
CR011 scFv: CR011 single chain antibody VL-L4-VH Flag; SEQ ID NO: 355,binding to recombinant GPNMB protein,[1],bound to the GPNMB target; also recorded: bind to the recombinant GPNMB protein
same,binding to T cells,[2],did not bind CD3 positive T cells
same,binding to SK-Mel-5 cells,[3],present at a low level
same,killing of SK-Mel-5 tumor cells by T lymphocytes,[4],did not increase killing
